{"source": "patent US11629331B2", "about": "“Method of differentiation of human induced pluripotent stem cell to dermal papilla precursor cell and use thereof” (SEOUL NATIONAL UNIVERSITY R & DB FOUNDATION, priority 2017, dated 2023)", "test_system": "neural crest stem cells", "experiment": "Flow cytometry (SDC1, CD133) of differentiation of neural crest stem cells into dermal papilla precursor cells", "type": "cell-based, human", "conditions": "CHIR-99021 at 0.1 μM, 1 μM and 10 μM with bFGF and BMP4; after about 2 weeks", "excerpt": "To develop a dermal papilla precursor cell medium composition for inducing differentiation of dermal papilla precursor cells from neural crest stem cells, the possibility of differentiation into dermal papilla precursor cells was examined by treatment with several factors alone known as vital materials for dermal papilla cell differentiation or a combination thereof. To confirm differentiation into dermal papilla precursor cells, mouse anti-human SDC1 and CD133/2 antibodies were stained using PBS supplemented with 2% FBS, and then the stained cells were analyzed using a flow cytometer (BD Biosciences). A DMEM/[…]) (Reference 1) (Thermo Fisher, catalog no. […] To determine the role of a GSK-3 inhibitor as a WNT signal activator in the dermal papilla precursor cell medium composition for inducing differentiation of dermal papilla precursor cells from neural crest stem cells, the possibility of differentiation into dermal papilla precursor cells was examined by treatment with not only 6-bromoindirubin-3'-oxime (BIO) but also CHIR-99021 at 0.1 μM, 1 μM, and 10 μM. To confirm the possibility of differentiation into dermal papilla precursor cells, mouse anti-human SDC1 and CD133/2 antibodies were stained using PBS supplemented with 2% FBS, and then the stained cells were analyzed using a flow cytometer (BD Biosciences). A DMEM/[…]) (Reference 1) (Thermo Fisher, catalog no. […]"}
{"smiles": "Cc1c[nH]c(-c2cnc(NCCNc3ccc(C#N)cn3)nc2-c2ccc(Cl)cc2Cl)n1", "note": "[CHIR-99021]", "values": [{"measurement": "differentiation efficiency into dermal papilla precursor cells (SDC1, CD133 flow cytometry)", "value": "differentiation efficiency increased according to the concentration"}]}
